Where two headings read alike, the source gives them in different places.
Assays:
Assay type in all cases: cell-based, canine
CMGT071020 cells [1] = assay: Morphological analysis, phase-contrast microscopy; conditions: CMGT071020, 50, 100 or 200 µM, 48 h
Description: (§1) To investigate the morphological changes of the two CMC cell lines during the treatment with MPOBA, they were cultured in a 6-well plate at a density of 2 × 10^5 cells/well and allowed to incubate for 24 h until they reached 70–80% confluence. They were subsequently treated with MPOBA at varying concentrations from 0 to 200 µM for 48 h. Images of the cells were captured using a phase-contrast inverted microscope (Nikon, Tokyo, Japan) at 40× magnification.

REM134 cells [2] = assay: Morphological analysis, phase-contrast microscopy; conditions: REM134, 50, 100 or 200 µM, 48 h
Description: as §1

CMGT071020 cells [3] = assay: MTT cell proliferation/cytotoxicity assay; conditions: Canis lupus familiaris, read-out: Half-Maximal Inhibitory Concentration (IC50)
Description: The cytotoxic effects of the three BZOP derivatives were studied via the 3-(4,5-Dimethyl-2-thiazolyl)-2,5-diphenyl-2H-tetrazolium bromide (MTT) assay. The REM134, CMGT071020, and MDCK cell lines were seeded at a density of 5 × 10^3 cells/well in 96-well plates and allowed to grow for 24 h. They were then treated with the three BZOP derivatives at various concentrations (0–300 µM) for 24 or 48 h, whereas cells treated with the culture medium containing 0.1% dimethyl sulfoxide (DMSO) were used as a negative control as the compounds were dissolved in DMSO. Subsequently, the cells were incubated with 10 µL of an MTT solution (Sigma, St. Louis, MO, USA) for 4 h. After the incubation with MTT solution, 100 µL of a solubilization solution was added to dissolve water-insoluble purple formazan crystals, and the plate was incubated overnight at 37 °C in 5% CO2. The absorbance of the formazan solution was measured using a Synergy H1 hybrid multi-mode microplate reader (BioTek, Winooski, VT, USA) at 570 nm. The experiment was conducted with four replicates, and the relative cell viability (%) of the treated cells was expressed as a percentage relative to the untreated control cells, which were considered to have 100% viability.

CMGT071020 cells [4] = assay: Transwell migration assay; conditions: 24 h, vs control (0.1% DMSO)
Description: (§2) The CMC cell migration assay was carried out using Transwell 24-well microplates with an 8 µm pore size (Costar, Corning, NY, USA). Both CMC cell lines were seeded into the upper Transwell insert at a density of 5 × 10^3 cells/well, containing various concentrations of MPOBA (0–200 µM) with 5% FBS in DMEM media. Then, 10% FBS in DMEM medium was added into the lower chambers, and the cells were incubated for 24 h. After an incubation duration of 24 h, the non-invaded cells were removed with a cotton swab from the upper surface of the membrane, and the invaded cells on the lower surface of the membrane were fixed with 100% methanol for 1 min and stained with the Wright–Giemsa stain for 20 min. The number of migrated cells was averaged by counting five random microscope fields for each sample at 4 × magnification in four independent experiments.

REM134 cells [5] = assay: Transwell migration assay; conditions: 24 h, vs control (0.1% DMSO)
Description: as §2

CMGT071020 cells [6] = assay: Relative mRNA expression by qRT-PCR
Description: (§3) After the treatment of the cells with MPOBA at varying concentrations from 0 to 200 µM for 48 h, the total RNA was isolated using a GeneJet RNA Purification kit (Thermo Fisher Scientific, Waltham, MA, USA) according to the manufacturer’s protocol for adherent tissue culture cells using the spin-column method. The RNA’s concentration and purity (A260/A280 ratio) were spectrophotometrically determined using a NanoDrop One/OneC Microvolume UV-Vis Spectrophotometer (Thermo Fisher Scientific, Waltham, MA, USA). To remove genomic DNA contamination, the samples were treated with RQ1 RNase-Free DNase (Promega, Madison, WI, USA) according to the manufacturer’s instructions. First-strand cDNA was obtained using a SuperScript® III First-Strand Synthesis kit for reverse-transcription polymerase chain reaction (RT-PCR) (Invitrogen, Carlsbad, CA, USA) according to the manufacturer’s protocol. Briefly, total RNA (1 μg), oligo (dT) primers (50 µM), a dNTP mix (10 mM), the cDNA synthesis mix, and nuclease-free water were added to obtain a final volume of 20 µL. PCR amplification was performed using a G-Storm GS482 PCR thermal cycler (Gene Technologies, Somerset, UK) with the following reaction profile: 65 °C for 5 min, 50 °C for 50 min, 85 °C for 5 min, and 37 °C for 5 min. The relative mRNA expression levels of canine SNAIL, SLUG, TWIST, E-cadherin, N-cadherin, TP53, EGFR, BAX, and BCL-2 were normalized to canine glyceraldehyde 3-phosphate dehydrogenase (GAPDH). The relative mRNA expression levels were calculated using the 2^–∆∆ Cq method. The transcriptional levels of all genes were determined in four replicates via qRT-PCR using a CFX 96 Touch real-time PCR detection system (Bio-Rad, Hercules, CA, USA). The qRT-PCR was performed using a reaction mixture containing 2 μL of the cDNA template, 10 μL of the iTaq Universal SYBR Green Supermix (Bio-Rad, Hercules, CA, USA), and 1 μL of each primer. The qRT-PCR protocol for the SNAIL, SLUG, TWIST, EGFR, TP53, BAX, BCL-2, and GAPDH genes was carried out as follows: initial denaturation at 94 °C for 3 min, denaturation at 94 °C for 15 s, annealing at 60 °C for 30 s, and extension at 72 °C for 1 min (40 cycles), and dissociation curves were generated between 65 °C and 95 °C to assess the specificity of the amplicons. The qRT-PCR protocol for E-cadherin and N-cadherin was carried out according to Yu et al..

REM134 cells [7] = assay: Relative mRNA expression by qRT-PCR
Description: as §3

[8] = CMGT071020, 200 µM, 48 h, vs control
[9] = REM134, 200 µM, 48 h, vs control
[10] = REM134, 48 h, treated vs untreated

## Cc1ncccc1Oc1ccccc1C=O [MPOBA, 2-((2-methylpyridin-3-yl)oxy)benzaldehyde]
CMGT071020 cells [1]
  cell morphology: reduced in cell size, cell shrinkage, rounding, vacuolation, and a loss of cell-to-cell adhesion
REM134 cells [2]
  cell morphology: reduced in cell size, cell shrinkage, rounding, vacuolation, and a loss of cell-to-cell adhesion
CMGT071020 cells [3]; CMGT071020, 24 h
  IC50: > 300 µM
CMGT071020 cells [3]; CMGT071020, 48 h
  IC50: 104 µM
CMGT071020 cells [4]; CMGT071020, 100 µM
  percentage of migrated cells: 68%
CMGT071020 cells [4]; CMGT071020, 200 µM
  percentage of migrated cells: 40%
REM134 cells [5]; REM134, 100 µM
  percentage of migrated cells: 35%
REM134 cells [5]; REM134, 200 µM
  percentage of migrated cells: 26%
CMGT071020 cells [6]; [8]
  BAX mRNA expression level: dramatically increased
  BCL-2 mRNA expression level: significantly decreased
  TP53 mRNA expression level: significantly increased
CMGT071020 cells [6]; CMGT071020, 48 h, treated vs untreated
  TWIST mRNA expression level: not significantly different
CMGT071020 cells [6]; CMGT071020, 48 h, vs control
  E-cadherin mRNA expression level: upregulation
  EGFR mRNA expression level: significantly decreased
  N-cadherin mRNA expression level: significant downregulation
  SLUG mRNA expression level: significant downregulation
  SNAIL mRNA expression level: significant downregulation
REM134 cells [7]; [9]
  BAX mRNA expression level: dramatically increased
  BCL-2 mRNA expression level: significantly decreased
  TP53 mRNA expression level: significantly increased
REM134 cells [7]; [10]
  SLUG mRNA expression level: not significantly different
  TWIST mRNA expression level: not significantly different
REM134 cells [7]; REM134, 48 h, vs control
  E-cadherin mRNA expression level: upregulation
  EGFR mRNA expression level: significantly decreased
  N-cadherin mRNA expression level: significant downregulation
  SNAIL mRNA expression level: significant downregulation
